Reference: patent US9381229B2, “Pharmaceutical composition for use in the treatment of dysfunction associated with aging” (INSERM (INSTITUT NATIONAL DE LA SANTE ET DE LA RECHERCHE …, priority 2011, dated 2016)
Like-named read-outs stand apart in the source and are kept apart here.

Key:
mtDNA = assay: Mitochondrial DNA analysis in soleus muscle (COX1 to cyclophilin A); assay type: in vivo; conditions: HFD mice
Experimental: Total DNA was extracted from soleus muscle using a commercial kit (DNeasy; QIAGEN). The content of mitochondrial (mt)DNA was calculated using real-time quantitative PCR by measuring the threshold cycle ratio of a mitochondrial encoded gene (COX1) and a nuclear-encoded gene (cyclophilin A) as previously described (15).

[1] = Plasma apelin concentration in HFD mice (Example 3); assay type: in vivo
Experimental: Plasma fatty acids (FM) and TGs measured by colorimetric technique with the Wako NEFA kit (Wako Chemicals) and the PAP 150 Kit (bioMerieux), respectively, as well as plasma leptin, adiponectin (Quantikine; R&D Systems), and apelin (Phoenix Pharmaceuticals, Inc.), were determined in the fed state at the end of the treatment. Insulinemia (Mercodia, Uppsala, Sweden) and glycemia measured with a glucometer (Accu-check; Roche Diagnostics) were determined in the fasted state on blood from the tail vein.

[2] = Plasma apelin concentration after ip bolus of apelin (Example 1); assay type: in vivo, mice; conditions: bolus of ip apelin 0.1 μmole/kg; 10 min after injection
[3] = tested on: mitochondrial transcription factor A (TFAM); conditions: soleus muscle; HFD mice; chronic apelin treatment
Experimental: (§1) Mice were handled in accordance with the principles and guidelines established by INSERM. C57B16/J wild-type (WT) mice were obtained from Harlah (Gannat, France). […] Moris J. Birnbaum (Howard Hughes Medical Institute, University of Pennsylvania, Philadelphia, Pa.). Apelin-deficient (apelin−/−) mice were generated as described previously (10) and backcrossed to C57B16/J mice >10 times. Mice were housed conventionally in a constant temperature (20-22° C.) and humidity (50-60%) animal room, with a 12/12 h light/dark cycle (lights on at 7:00 a.m.) and free access to food and water. The C57B16/J and AMPK-DN mice were fed an ND from weaning until aged 10 weeks and then either maintained on ND (control group) or fed an HFD containing 20% protein, 35% carbohydrate, and 45% fat (Research Diets, New Brunswick, N.J.). Apelin treatment began after the onset of insulin resistance in males aged 23 weeks. Mice were injected daily with apelin-13 (Phoenix Biotech) at […] i.p. as previously described (7) for 28 days. Age-matched control mice were PBS injected during the same period. Standard mice were also treated with a specific APJ receptor antagonist (F13A) (Phoenix Biotech) (11) at 0.2 μmol/kg/day during 28 days or with the combination of apelin and F13A. All mice were killed 24 h after the last apelin injection in a fed state.
(§2) Total RNAs (1 μg) were isolated from muscle using RNA STAT (AMS Technology, Lutterworth, U.K.) and were reverse transcribed using random hexamers and Superscript II reverse transcriptase (Invitrogen, Paisley, U.K.). Real time PCR was performed as previously described (1). Analysis of the 18S ribosomal RNA was performed using the ribosomal RNA control TaqMan Assay Kit (Applied Biosystems) to normalize gene expression.

PGC1-α = conditions: soleus muscle; HFD mice; chronic apelin treatment
Experimental: as §1, §2

[4] = tested on: nuclear respiratory factor 1 (NRF1); conditions: soleus muscle; HFD mice; chronic apelin treatment
Experimental: as §1, §2

PGC1-β = conditions: soleus muscle; HFD mice; chronic apelin treatment
Experimental: as §1, §2

mitochondrial complexes = conditions: muscle of HFD mice; chronic apelin treatment
Experimental: as §1
(§3) Membranes were probed with β-actin or AMPK or ACC antibodies for total proteins.

ACC = conditions: muscle of insulin-resistant mice
Experimental: as §1, §3

AMPK [5] = conditions: muscle of insulin-resistant mice
Experimental: as §1, §3

Malonyl-CoA = conditions: soleus muscle of insulin-resistant mice
Experimental: as §1

soleus muscle = tested on: soleus muscle
Experimental: as §1

citrate synthase = conditions: muscle homogenates; HFD mice; n=7-9; P<0.001 vs control
Experimental: as §1

AMPK [6] = conditions: muscle of HFD AMPK-DN apelin-treated mice
Experimental: as §1

[7] = tested on: mitochondria of soleus muscle; conditions: HFD mice
Experimental: as §1

[8] = tested on: muscle of insulin-resistant mice; conditions: HFD mice; chronic apelin treatment 28 days
Experimental: as §1

Myostatin = conditions: for Myostatin marker quantification (mRNA), Mean: apelin 0.1 μmole/kg/day ip, 28 days
Experimental: (§4) Mice were handled in accordance with the principles and guidelines established by the National Institute of Medical Research (INSERM). C57B16/J wild type mice were obtained from Harlan (Gannat, France). CMV-KO apelin mice were obtained from Genoway (Lyon, France). Mice were housed conventionally in a constant temperature (20-22° C.) and humidity (50-60%) animal room, with a 12/12 h light/dark cycle (lights on at 8:00 am) and free access to food and water. The mice were fed a chow diet from weaning until 10-week-old and then either maintained on a chow diet (Research Diet, NJ).
(§5) Apelin treatment was processing to mice from 31 weeks old to 35 weeks old. Mice were daily injected with intraperitoneal injection of apelin (0.1 μmole/kg/day) as previously described (Higuchi et al 2005; Yue et al 2010) for 28 days. Age-matched control mice were PBS-injected during the same period. All mice were sacrificed 24 h after the last apelin ip injection in a fed state.
(§6) Total RNAs ([…]) were isolated from muscles using GeneJET RNA Purification Kit (Fermentas, USA). Total RNAs were reverse transcribed using random hexamers and Superscript 11 reverse transcriptase (Invitrogen, UK). Real time PCR was performed as previously described (Boucher et al. 2005).

Myf5 = conditions: for Myf5 marker quantification (mRNA), Mean: apelin 0.1 μmole/kg/day ip, 28 days
Experimental: as §4, §5, §6

myogenin = conditions: for myogenin marker quantification (mRNA), Mean: apelin 0.1 μmole/kg/day ip, 28 days
Experimental: as §4, §5, §6

MyoD = conditions: for MyoD marker quantification (mRNA), Mean: apelin 0.1 μmole/kg/day ip, 28 days
Experimental: as §4, §5, §6

[9] = soleus muscle, HFD mice, chronic apelin treatment
[10] = quadriceps muscles of moderate aged-mice, 28-days treatment

With `CSCC[C@H](NC(=O)[C@@H]1CCCN1C(=O)CNC(=O)[C@H](CCCCN)NC(=O)[C@H](Cc1cnc[nH]1)NC(=O)[C@H](CO)NC(=O)[C@H](CC(C)C)NC(=O)[C@H](CCCNC(=N)N)NC(=O)[C@@H]1CCCN1C(=O)[C@H](CCCNC(=N)N)NC(=O)[C@@H](N)CCC(N)=O)C(=O)N1CCC[C@H]1C(=O)N[C@@H](Cc1ccccc1)C(=O)O` [apelin, apelin-13] the “mtDNA-to-nuclear DNA ratio vs PBS-treated mice (FIG. 5D)” value (mtDNA) was “significantly higher”, the “Plasma apelin concentrations, increase” value ([1]; HFD mice, bolus of apelin 0.1 μmol/kg i.p., 10 min after injection) was > 2.4 fold and the “Plasma apelin concentrations, apelin-treated vs PBS-treated mice” value ([1]; at the end of the 28-day treatment) was “not different”. For the same compound, the level at 10 min ([1]; mouse, in vivo, ip, 0.1 umol/kg, HFD mice, bolus of apelin 0.1 μmol/kg i.p., 10 min after injection, n=5) was 4.12 ± 0.96 ng/mL, the “Plasma apelin concentrations, increase” value [2] was “over 2.5 fold” and the “expression of TFAM” value [3] was “upregulated”. For the same compound, the “Expression of PGC1-α (FIG. 5C)” value (PGC1-α) was “significantly increased”, the “expression of NRF1” value [4] was “upregulated” and the “expression of PGC1-β (FIG. 5C)” value (PGC1-β) was “not modified”. For the same compound, the “Protein expression of complex II, III, and V (FIG. 5B)” value (mitochondrial complexes) was “significantly increased”, the “ACC phosphorylation (FIG. 6A)” value (ACC) was “significantly increased” and the “AMPK phosphorylation (FIG. 6A)” value (AMPK [5]) was “significantly increased”. For the same compound, the “malonyl-CoA concentrations (FIG. 6B)” value (Malonyl-CoA) was “significant reduction”, the “insulin-stimulated glucose uptake vs PBS-treated mice (FIG. 7B)” value (soleus muscle; 100 nmol/L insulin, HFD mice) was “significantly increased” and the “rate of palmitate incorporation into TG (FIG. 4B)” value (soleus muscle; HFD mice, chronic apelin treatment 28 days) was “no effect”. The “acylcarnitine levels, especially C16:1 and C18:1 species, vs HFD PBS-treated mice (FIG. 7A)” value (soleus muscle; soleus muscle homogenates) was “reduced”, the “complete oxidation of [14C]palmitate to CO2 vs PBS treatment (FIG. 4C)” value (soleus muscle; [9]) was “significantly increased” and the “incomplete oxidation of [14C]palmitate (FIG. 4C)” value (soleus muscle; [9]) was “not significantly increased”. The citrate synthase activity (citrate synthase) was 2.91±0.07 μmol/min/mg proteins, the “apelin-increased FAO in HFD AMPK-DN mice vs HFD WT (FIG. 6C)” value (AMPK [6]) was “completely blunted” and the “apelin-increased mitochondrial biogenesis in HFD AMPK-DN mice vs HFD WT (FIG. 6D)” value (AMPK [6]) was “completely blunted”. The “overexpression of PGC1-α, TFAM, and NRF1 in HFD AMPK-DN mice (FIG. 6E)” value (AMPK [6]) was “reduced”, the “alterations of mitochondria ultrastructure in IMF and SS mitochondria (FIG. 5E)” value [7] was “Fewer adverse alterations” and the “density of intramyofibrillar (IMF) mitochondria (FIG. 5E)” value [7] was “significantly increased”. The “succinate and adenylate-driven respiration (State 3)” value ([7]; permeabilized soleus fibers) was “significantly higher”, the “succinate-driven mitochondrial respiration (complex II) vs control (FIG. 5A)” value ([7]; permeabilized soleus fibers) was “significantly higher” and the “glutamate/malate-driven mitochondrial respiration (complex I), apelin- vs PBS-treated” value ([7]; permeabilized soleus fibers, data not shown) was “No difference”. The “amount of IMTG and DAG in muscle vs PBS treatment (FIG. 4A)” value [8] was “does not reduce”, the “Myostatin marker quantification (mRNA), Mean” value (Myostatin; EDL muscle) was 114.660 and the “Myostatin marker quantification (mRNA), Mean” value (Myostatin; Gas muscle) was 1034.000. The “Myostatin marker quantification (mRNA), Mean” value (Myostatin; Quad muscle) was 244.300, the “myostatin expression, change in words (FIGS. 1A and B)” value (Myostatin; [10]) was “decrease” and the “Myf5 marker quantification (mRNA), Mean” value (Myf5; EDL muscle) was 1.200. For the same compound, the “Myf5 marker quantification (mRNA), Mean” value (Myf5; Gas muscle) was 5.340, the “Myf5 marker quantification (mRNA), Mean” value (Myf5; Quad muscle) was 5.820 and the “Myf 5 expression, change in words (FIGS. 1A and B)” value (Myf5; [10]) was “increased”. The “myogenin marker quantification (mRNA), Mean” value (shortened to “myogenin marker quantification”) (myogenin; EDL muscle) was 14.280, the “myogenin marker quantification” value (myogenin; Gas muscle) was 23.360 and the “myogenin marker quantification” value (myogenin; Quad muscle) was 35.060. For the same compound, the “Myogenin expression, change in words (FIGS. 1A and B)” value (myogenin; [10]) was “increased”, the “MyoD marker quantification (mRNA), Mean” value (MyoD; EDL muscle) was 142.520 and the “MyoD marker quantification (mRNA), Mean” value (MyoD; Gas muscle) was 222.300. The “MyoD marker quantification (mRNA), Mean” value (MyoD; Quad muscle) was 328.160 and the “MyoD expression, change in words (FIGS. 1A and B)” value (MyoD; [10]) was “increased”.
